According to patent publication US20260028354A1, “TETRAHYDRONAPHTHALENE DERIVATIVES AS ESTROGEN RECEPTOR DEGRADERS” (REGENT OF THE UNIVERSITY OF MICHIGAN, priority 2022, published 2026):
Where two headings read alike, the source gives them in different places.

Biological target: ER in MCF-7 cells (Homo sapiens (Human), UniProt P03372)
Assay: In-cell Western (ICW) ER degradation assay in MCF-7 cells
Format: cell-based
Conditions: for DC50: MCF-7, ER degradation, read-out: MCF7 DC50
Source text: In-cell Western (ICW) assays in MCF-7 and T47D cell lines.
Day 3: After 16 hrs of compounds treatment, cells were fixed by 4% PFA and permeabilized with elution buffer (0.1% Triton X-100 in 1% PBS Solution). Subsequently, cells were blocked with Intercept (PBS) Blocking Buffer (Li-COR, Odyssey Blocking Buffer), and were stained with ER (1:500, Cell signaling) primary antibody for overnight at cold room.
Day 4: Remove the buffer, add IRDye 800CW Goat anti-Rabbit IgG Secondary Antibody (1:2000) and CellTag 700 Stain (1:500) in Intercept (PBS) Blocking Buffer. Finally, cell plate is placed in incubator to dry. Image and signal were captured on Odyssey® DLx Imaging System.

[1] = MCF7, MCF-7, maximal ER degradation, 16 hrs treatment, read-out: MCF7 Dmax
[2] = MCF7, read-out: MCF7 Dmax, MCF-7, maximal ER degradation, 16 hrs treatment

Sequence of ER in MCF-7 cells (P03372 whole entry): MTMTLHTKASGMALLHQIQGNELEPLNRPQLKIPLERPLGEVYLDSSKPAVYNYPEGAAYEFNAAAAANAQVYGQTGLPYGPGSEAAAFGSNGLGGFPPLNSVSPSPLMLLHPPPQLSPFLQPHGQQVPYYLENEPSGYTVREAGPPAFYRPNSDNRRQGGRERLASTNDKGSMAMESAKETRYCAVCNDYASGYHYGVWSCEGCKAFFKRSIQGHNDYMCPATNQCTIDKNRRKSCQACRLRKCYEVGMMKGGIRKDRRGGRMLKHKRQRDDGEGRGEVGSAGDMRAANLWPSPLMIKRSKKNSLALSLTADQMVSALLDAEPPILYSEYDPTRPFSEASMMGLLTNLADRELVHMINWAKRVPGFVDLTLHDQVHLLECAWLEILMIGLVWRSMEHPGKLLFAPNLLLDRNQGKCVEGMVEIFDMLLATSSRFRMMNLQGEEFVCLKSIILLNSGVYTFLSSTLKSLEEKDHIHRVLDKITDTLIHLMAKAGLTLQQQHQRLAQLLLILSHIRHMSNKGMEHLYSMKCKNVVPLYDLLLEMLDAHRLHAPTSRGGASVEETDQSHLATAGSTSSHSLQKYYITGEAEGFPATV

Compound | Dmax [1] | DC50 (16 hrs treatment) | Dmax [2] | MCF7 Dmax (MCF-7, maximal ER degradation, 16 hrs treatment)
O=C1CC[C@H](N2Cc3cc4c(cc3C2=O)OC[C@@H]2CN(CC3CC5(CCN(c6ncc([C@@H]7c8ccc(O)cc8CC[C@@H]7c7ccccc7)cn6)CC5)C3)CCN42)C(=O)N1 (single isomer, unassigned) [Compound A144] | 50 to 75% | 1 to 10 nM | – | –
COc1cc(N2CC3(CCC(CN4CCC5(CC4)COc4c5ccc5c4CN([C@H]4CCC(=O)NC4=O)C5=O)CC3)C2)c(F)cc1[C@H]1c2ccc(O)cc2CC[C@H]1c1ccccc1 [Compound A168, (S)-3-(1′-((2-(2-fluoro-4-((1R,2R)-6-hydroxy-2-phenyl-1,2,3,4-tetrahydronaphthalen-1-yl)-5-methoxyphenyl)-2-azaspiro[3.5]nonan-7-yl)methyl)-6-oxo-6,8-dihydro-2H,7H-spiro[furo[2,3-e]isoindole-3,4′-piperidin]-7-yl)piperidine-2,6-dione] | – | 1 to 10 nM | 50 to 75% | –
O=C1CC[C@H](N2Cc3cc4c(cc3C2=O)OC[C@@H]2CN(CC3CC5(CCN(c6ncc([C@H]7c8ccc(O)cc8CC[C@H]7c7ccccc7)cn6)CC5)C3)CCN42)C(=O)N1 (single isomer, unassigned) [Compound A143] | 50 to 75% | 10 to 100 nM | – | –
COc1cc(N2CC3(CCC(CN4CCC5(CC4)COc4cc6c(cc45)CN([C@H]4CCC(=O)NC4=O)C6=O)CC3)C2)c(F)cc1[C@H]1c2ccc(O)cc2CC[C@H]1c1ccccc1 [Compound A172, (S)-3-(1′-((2-(2-fluoro-4-((1R,2R)-6-hydroxy-2-phenyl-1,2,3,4-tetrahydronaphthalen-1-yl)-5-methoxyphenyl)-2-azaspiro[3.5]nonan-7-yl)methyl)-7-oxo-5,7-dihydro-2H,6H-spiro[furo[2,3-f]isoindole-3,4′-piperidin]-6-yl)piperidine-2,6-dione] | – | 10 to 100 nM | 25 to 50% | –
O=C1CC[C@H](N2Cc3c(ccc4c3OCC43CCN(CC4CC5(CCN(c6ccc([C@@H]7c8ccc(O)cc8CC[C@@H]7c7ccccc7)cc6F)CC5)C4)CC3)C2=O)C(=O)N1 [Compound A146, (S)-3-(1′-((7-(2-fluoro-4-((1R,2S)-6-hydroxy-2-phenyl-1,2,3,4-tetrahydronaphthalen-1-yl)phenyl)-7-azaspiro[3.5]nonan-2-yl)methyl)-6-oxo-6,8-dihydro-2H,7H-spiro[furo[2,3-e]isoindole-3,4′-piperidin]-7-yl)piperidine-2,6-dione] | – | 10 to 100 nM | 25 to 50% | –
O=C1CC[C@H](N2Cc3cc4c(cc3C2=O)OC[C@@H]2CN(CC3CCC5(CC3)CN(c3ccc([C@@H]6c7ccc(O)cc7CC[C@@H]6c6ccccc6)cn3)C5)CCN42)C(=O)N1 [Compound A130, (S)-3-((S)-3-((2-(5-((1S,2S)-6-hydroxy-2-phenyl-1,2,3,4-tetrahydronaphthalen-1-yl)pyridin-2-yl)-2-azaspiro[3.5]nonan-7-yl)methyl)-8-oxo-1,2,3,4,4a,5,8,10-octahydro-9H-pyrazino[1′,2′:4,5][1,4]oxazino[2,3-f]isoindol-9-yl)piperidine-2,6-dione] | – | 1 to 10 nM | – | A (“A”: >=75%)
COc1c([C@@H]2c3ccc(O)cc3CC[C@@H]2c2ccccc2)ccc(N2CCC(CN3CCN4c5cc6c(cc5OC[C@@H]4C3)C(=O)N([C@H]3CCC(=O)NC3=O)C6)CC2)c1F (single isomer, unassigned) [Compound A171] | > 75% | < 1 nM | – | –
O=C1CC[C@H](NC(=O)c2ccc3c(n2)OC[C@H]2CN(CC4CCC5(CC4)CN(c4ccc([C@@H]6c7ccc(O)cc7CC[C@@H]6c6ccccc6)cn4)C5)CCN32)C(=O)N1 (single isomer, unassigned) [Compound A127] | 50 to 75% | 1 to 10 nM | – | –
O=C1CC[C@H](N2Cc3c(ccc4c3OC[C@H]3CN(CC5COC6(CCN(c7ccc([C@H]8c9ccc(O)cc9CC[C@H]8c8ccccc8)cn7)CC6)C5)CCN43)C2=O)C(=O)N1 (single isomer, unassigned) [Compound A137] | < 25% | 1 to 10 nM | – | –
COc1cc(N2CC3(CCC(CN4CCN5c6cc7c(cc6OC[C@@H]5C4)C(=O)N([C@H]4CCC(=O)NC4=O)C7)CC3)C2)c(F)cc1[C@H]1c2ccc(O)cc2CC[C@H]1c1ccccc1 [Compound A169, (S)-3-((S)-3-((2-(2-fluoro-4-((1R,2R)-6-hydroxy-2-phenyl-1,2,3,4-tetrahydronaphthalen-1-yl)-5-methoxyphenyl)-2-azaspiro[3.5]nonan-7-yl)methyl)-8-oxo-1,2,3,4,4a,5,8,10-octahydro-9H-pyrazino[1′,2′: 4,5][1,4]oxazino[2,3-f]isoindol-9-yl)piperidine-2,6-dione] | 25 to 50% | 10 to 100 nM | – | –
COc1c([C@H]2c3ccc(O)cc3CC[C@H]2c2ccccc2)ccc(N2CCC(CN3CCN4c5cc6c(cc5OC[C@@H]4C3)C(=O)N([C@H]3CCC(=O)NC3=O)C6)CC2)c1F (single isomer, unassigned) [Compound A170] | 25 to 50% | 10 to 100 nM | – | –
O=C1CC[C@H](N2Cc3cc4c(cc3C2=O)OCC42CCN(CC3CCC4(CC3)CN(c3ccc([C@@H]5c6ccc(O)cc6CC[C@@H]5c5ccccc5)cn3)C4)CC2)C(=O)N1 [Compound A128, (S)-3-(1′-((2-(5-((1S,2S)-6-hydroxy-2-phenyl-1,2,3,4-tetrahydronaphthalen-1-yl)pyridin-2-yl)-2-azaspiro[3.5]nonan-7-yl)methyl)-7-oxo-5,7-dihydro-2H,6H-spiro[furo[2,3-f]isoindole-3,4′-piperidin]-6-yl)piperidine-2,6-dione] | – | 1 to 10 nM | 50 to 75% | –
O=C1CC[C@H](N2Cc3c(ccc4c3OCC43CCN(CCCOC4CN(c5ccc([C@@H]6c7ccc(O)cc7CC[C@@H]6c6ccccc6)cc5)C4)CC3)C2=O)C(=O)N1 [Compound A183, (S)-3-(1′-(3-((1-(4-((1R,2S)-6-hydroxy-2-phenyl-1,2,3,4-tetra-hydronaphthalen-1-yl)phenyl)-azetidin-3-yl)oxy)propyl)-6-oxo-6,8-dihydro-2H,7H-spiro [furo[2,3-e]isoindole-3,4′-piperidin]-7-yl)piperidine-2,6-dione] | – | < 1 nM | 50 to 75% | –
COc1cc(N2CC3(CC(CN4CCC5(CC4)COc4c5ccc5c4CN(C4CCC(=O)NC4=O)C5=O)C3)C2)c(F)cc1[C@@H]1c2ccc(O)cc2CC[C@@H]1c1ccccc1 (stereo partly drawn) [Compound A184, (S)-3-(1′-((2-(2-fluoro-4-((1S, 2S)-6-hydroxy-2-phenyl-1,2,3,4-tetrahydronaphthalen-1-yl)-5-methoxyphenyl)-2-aza-spiro[3.3]heptan-6-yl)methyl)-6-oxo-6,8-dihydro-2H,7H-spiro[furo[2,3-e]isoindole-3,4′-piperidin]-7-yl)piperidine-2,6-dione] | – | < 1 nM | – | –
COc1cc(N2CCC3(CC2)CC(CN2CCC4(CC2)COc2nc(C(=O)N[C@H]5CCC(=O)NC5=O)ccc24)C3)c(F)cc1[C@@H]1c2ccc(O)cc2CC[C@@H]1c1ccccc1 [Compound A190, N-((S)-2,6-dioxopiperidin-3-yl)-1′-((7-(2-fluoro-4-((1S,2S)-6-hydroxy-2-phenyl-1,2,3,4-tetrahydronaphthalen-1-yl)-5-methoxyphenyl)-7-azaspiro [3.5]nonan-2-yl)methyl)-2H-spiro[furo[2,3-b]pyridine-3,4′-piperidine]-6-carboxamide] | – | < 1 nM | 50 to 75% | –
O=C1CC[C@H](N2Cc3cc4c(cc3C2=O)OCC42CCN(CC3CCN(c4ccc([C@@H]5c6ccc(O)cc6CC[C@@H]5c5ccccc5)cc4)CC3)CC2)C(=O)N1 [Compound A186, (S)-3-(1′-((1-(4-((1R,2S)-6-hydroxy-2-phenyl-1,2,3,4-tetra-hydronaphthalen-1-yl)phenyl)-piperidin-4-yl)methyl)-7-oxo-5,7-dihydro-2H,6H-spiro[furo [2,3-f]isoindole-3,4′-piperidin]-6-yl)piperidine-2,6-dione] | – | < 1 nM | 50 to 75% | –
O=C1CC[C@H](N2Cc3c(ccc4c3OC[C@H]3CN(C[C@@H]5COC6(CCN(c7ccc([C@@H]8c9ccc(O)cc9CC[C@@H]8c8ccccc8)cn7)CC6)C5)CCN43)C2=O)C(=O)N1 (single isomer, unassigned) [Compound A138] | 50 to 75% | < 1 nM | – | –
COc1cc(N2CC3(CCC(CN4CCN5c6ccc7c(c6OC[C@H]5C4)CN([C@H]4CCC(=O)NC4=O)C7=O)CC3)C2)c(F)cc1[C@H]1c2ccc(O)cc2CC[C@H]1c1ccccc1 (single isomer, unassigned) [Compound A165] | 50 to 75% | 10 to 100 nM | – | –
COc1cc(N2CCC3(CC2)CC(CN2CCC4(CC2)COc2cc5c(cc24)CN([C@H]2CCC(=O)NC2=O)C5=O)C3)ccc1[C@@H]1c2ccc(O)cc2CC[C@@H]1c1ccccc1 [Compound A162, (S)-3-(1′-((7-(4-((1S,2S)-6-hydroxy-2-phenyl-1,2,3,4-tetrahydronaphthalen-1-yl)-3-methoxyphenyl)-7-azaspiro [3.5]nonan-2-yl)methyl)-7-oxo-5,7-dihydro-2H,6H-spiro[furo [2,3-f]isoindole-3,4′-piperidin]-6-yl)piperidine-2,6-dione] | – | < 1 nM | 25 to 50% | –
O=C1CC[C@H](N2Cc3c(ccc4c3OC[C@H]3CN(CC5CC6(CCN(c7ncc([C@H]8c9ccc(O)cc9CC[C@H]8c8ccccc8)cn7)CC6)C5)CCN43)C2=O)C(=O)N1 (single isomer, unassigned) [Compound A139] | 50 to 75% | 1 to 10 nM | – | –
O=C1CC[C@H](N2Cc3c(ccc4c3OC[C@H]3CN(CC5CC6(CCN(c7ccc([C@@H]8c9ccc(O)cc9CC[C@@H]8c8ccccc8)cc7F)CC6)C5)CCN43)C2=O)C(=O)N1 (single isomer, unassigned) [Compound A145] | 50 to 75% | 10 to 100 nM | – | –
